Source: patent publication US20230000812A1, “IBUPROFEN ESTER PRODRUG, PHARMACEUTICAL COMPOSITION, PREPARATION METHOD AND APPLICATION” (NANJING HERON PHARMACEUTICAL SCIENCE AND TECHNOLOGY CO., …, priority 2020, published 2023)
Like-named read-outs stand apart in the source and are kept apart here. Values belong to the compound of their own block, whether it stands above or below them.

Key:
[1] = In vitro human plasma metabolism (enzymolysis kinetics test in human plasma); settings: for metabolic rate (hydrolysis rate) in human plasma: 0-120 min, FIG. 1 and 2; for degradation rate of the peaks in human plasma: liquid chromatograms, FIG. 3-5
[2] = human, 0.98 mM; for Amount of Active Metabolites Produced (%): 120 min; for Remaining Amount of the Prodrug Compound (%): plasma, 2 h
[3] = Stability of dextrorotatory enantiomers in solvents (MCT, soybean oil, phosphate buffer of Tween 80) at 80° C.; format: physicochemical; settings: for purity of the isomer: oil phase or water phase; for purity of the isomer / related substances in the oil phase / content of the related substance in the water phase: 10 days
Description: Samples were placed at 80° C., and samples were taken on Day 0, 5, and 10 to determine the purity of the compounds and changes of the related substance (ibuprofen) and an isomer (levorotatory).
4.2 Determination of the related substance in accordance with high-performance liquid chromatography (Chinese Pharmacopoeia 2015 Edition General Rules 0512)
(1) Chromatographic conditions: Chromatographic column: Agilent ZORBAX SB-C8, 4.6 mm×250 mm, 5 μm; mobile phase: 0.1% phosphoric acid solution-acetonitrile (50:50); detection wavelength: 220 nm; flowrate: 1.0 mL per minute; column temperature: 40° C.
(§1) (2) Determination method: An appropriate amount of the substance was taken, accurately weighed, added with a diluent [anhydrous ethanol], shaken to be dissolved, quantitatively diluted into a solution of about 0.4 mg/mL, and vortexed for 30s. The solution was filtered with a PTFE filter membrane (0.22 μm, Jinteng) and the filtrate was used as the test solution, 10 μL was accurately measured into a liquid chromatograph and the chromatogram was recorded. In the chromatogram of the test solution, if there were impurity peaks, the results should be obtained by calculation according to a peak area normalization method.
4.3 Determination of the isomer in accordance with high-performance liquid chromatography (Chinese Pharmacopoeia 2015 Edition General Rules 0512)
as §1, with “Determination” for “(2) Determination”, “isomer” for “substance”, “[n-hexane-isopropanol (90:10)],” for “[anhydrous ethanol],”, “1.0” for “0.4”, “isomer” for “impurity”

[4] = Pharmacokinetics in rats after tail vein injection (Test Example 4); settings: rat, in vivo
Description: The whole blood was centrifuged at 8000 rpm for 5 min, and plasma samples were taken and stored at −80° C., separately.
Preparation of test solutions: the test solutions were administered through tail veins of rats at a volume of […].

[5] = Phosphate buffer of Tween 80, 80° C., Day 0
[6] = Phosphate buffer of Tween 80, 80° C., Day 5
[7] = Phosphate buffer of Tween 80, 80° C., Day 10

metabolic rate (hydrolysis rate) in human plasma ([1]; human plasma): relatively slow metabolic rates | Remaining Amount of the Prodrug Compound (%) ([1]; human plasma, 37° C., 120 min): 78.6 ± 2.6% | degradation rate of the peaks in human plasma [1]: relatively slow degradation rate
Structure (SMILES): CC(C)Cc1ccc([C@H](C)C(=O)OC(C)OC(=O)OC(C)C)cc1 (stereo partly drawn) [Compound N2S]

Structure (SMILES): CC(C)Cc1ccc(C(C)C(=O)OC(C)OC(=O)OC(C)C)cc1 (stereo not drawn) [Compound N2]
Amount of Active Metabolites Produced (%) [2]: 10.7 ± 0.4% | Remaining Amount of the Prodrug Compound (%) [2]: 87.4 ± 5.3%

Ibuprofen (%) ([3]; MCT, 80° C., Day 0): 0.03% | Isomer (%) ([3]; MCT, 80° C., Day 0): 3.26% | Purity of related Main Peak (%) ([3]; MCT, 80° C., Day 0): 99.89% | Ibuprofen (%) ([3]; MCT, 80° C., Day 5): 0.05% | Isomer (%) ([3]; MCT, 80° C., Day 5): 3.47% | Purity of related Main Peak (%) ([3]; MCT, 80° C., Day 5): 99.88% | Ibuprofen (%) ([3]; MCT, 80° C., Day 10): 0.06% | Isomer (%) ([3]; MCT, 80° C., Day 10): 3.45% | Purity of related Main Peak (%) ([3]; MCT, 80° C., Day 10): 99.87% | Ibuprofen (%) [3, 5]: 2.42% | Isomer (%) [3, 5]: 3.68% | Purity of related Main Peak (%) [3, 5]: 97.56% | Ibuprofen (%) [3, 6]: 10.24% | Isomer (%) [3, 6]: 3.97% | Purity of related Main Peak (%) [3, 6]: 89.66% | Ibuprofen (%) [3, 7]: 16.98% | Isomer (%) [3, 7]: 3.88% | Purity of related Main Peak (%) [3, 7]: 82.73% | Ibuprofen (%) ([3]; Soybean oil, 80° C., Day 0): 0.03% | Isomer (%) ([3]; Soybean oil, 80° C., Day 0): 3.26% | Purity of related Main Peak (%) ([3]; Soybean oil, 80° C., Day 0): 99.84% | Ibuprofen (%) ([3]; Soybean oil, 80° C., Day 5): 0.08% | Isomer (%) ([3]; Soybean oil, 80° C., Day 5): 3.21% | Purity of related Main Peak (%) ([3]; Soybean oil, 80° C., Day 5): 99.79% | Ibuprofen (%) ([3]; Soybean oil, 80° C., Day 10): 0.16% | Isomer (%) ([3]; Soybean oil, 80° C., Day 10): 3.20% | Purity of related Main Peak (%) ([3]; Soybean oil, 80° C., Day 10): 99.47% | purity of the isomer ([3]; 80° C.): remains basically unchanged | related substances in the oil phase ([3]; 80° C.): remain basically unchanged | content of the related substance in the water phase ([3]; 80° C.): increases | Remaining Amount of the Prodrug Compound (%) ([1]; human plasma, 37° C., 120 min): 40.5 ± 1.6%
Structure (SMILES): CCOC(=O)OC(C)OC(=O)[C@@H](C)c1ccc(CC(C)C)cc1 (stereo partly drawn) [Compound N6S]
metabolic rate (hydrolysis rate) in human plasma ([1]; human plasma): relatively fast metabolic rates close to that of S-FPA

Structure (SMILES): CCOC(=O)OC(C)OC(=O)C(C)c1ccc(CC(C)C)cc1 (stereo not drawn) [Compound N6]
Remaining Amount of the Prodrug Compound (%) [2]: 58.96 ± 3.1%

Isomer (%) ([3]; MCT, 80° C., Day 0): 0.95% | Purity of related Main Peak (%) ([3]; MCT, 80° C., Day 0): 99.80% | Ibuprofen (%) ([3]; MCT, 80° C., Day 5): 0.02% | Isomer (%) ([3]; MCT, 80° C., Day 5): 0.95% | Purity of related Main Peak (%) ([3]; MCT, 80° C., Day 5): 99.78% | Ibuprofen (%) ([3]; MCT, 80° C., Day 10): 0.04% | Isomer (%) ([3]; MCT, 80° C., Day 10): 0.94% | Purity of related Main Peak (%) ([3]; MCT, 80° C., Day 10): 99.66% | Ibuprofen (%) [3, 5]: 0.63% | Isomer (%) [3, 5]: 0.86% | Purity of related Main Peak (%) [3, 5]: 99.03% | Ibuprofen (%) [3, 6]: 5.27% | Isomer (%) [3, 6]: 1.19% | Purity of related Main Peak (%) [3, 6]: 92.78% | Ibuprofen (%) [3, 7]: 8.76% | Isomer (%) [3, 7]: 1.78% | Purity of related Main Peak (%) [3, 7]: 87.97% | Isomer (%) ([3]; Soybean oil, 80° C., Day 0): 0.91% | Purity of related Main Peak (%) ([3]; Soybean oil, 80° C., Day 0): 99.85% | Ibuprofen (%) ([3]; Soybean oil, 80° C., Day 5): 0.09% | Isomer (%) ([3]; Soybean oil, 80° C., Day 5): 0.90% | Purity of related Main Peak (%) ([3]; Soybean oil, 80° C., Day 5): 99.57% | Ibuprofen (%) ([3]; Soybean oil, 80° C., Day 10): 0.13% | Isomer (%) ([3]; Soybean oil, 80° C., Day 10): 0.97% | Purity of related Main Peak (%) ([3]; Soybean oil, 80° C., Day 10): 99.38% | purity of the isomer ([3]; 80° C.): remains basically unchanged | related substances in the oil phase ([3]; 80° C.): remain basically unchanged | content of the related substance in the water phase ([3]; 80° C.): increases | Remaining Amount of the Prodrug Compound (%) ([1]; human plasma, 37° C., 120 min): 45.0 ± 2.1%
Structure (SMILES): CCOC(=O)OC(CC)OC(=O)[C@@H](C)c1ccc(CC(C)C)cc1 (stereo partly drawn) [Compound N9S]
metabolic rate (hydrolysis rate) in human plasma ([1]; human plasma): relatively fast metabolic rates close to that of S-FPA

Structure (SMILES): CCOC(=O)OC(CC)OC(=O)C(C)c1ccc(CC(C)C)cc1 (stereo not drawn) [Compound N9]
AUC0-t compared with dexibuprofen salt solution directly injected [4]: no significant difference | Amount of Active Metabolites Produced (%) [2]: 20.3 ± 0.8% | Remaining Amount of the Prodrug Compound (%) [2]: 62.5 ± 1.3%

metabolic rate (hydrolysis rate) in human plasma ([1]; human plasma): relatively slow metabolic rates
Structure (SMILES): CCC(OC(=O)OC(C)C)OC(=O)[C@@H](C)c1ccc(CC(C)C)cc1 (stereo partly drawn) [Compound N10S]

Remaining Amount of the Prodrug Compound (%) [1]: 50.9 ± 2.5%
Structure (SMILES): CC(=O)OC(C)OC(=O)C(C)c1ccc(-c2ccccc2)c(F)c1 (stereo not drawn) [FPA, flurbiprofen axetil, reference compound]

degradation rate of the peaks in human plasma [1]: different degradation rates
Structure (SMILES): CCOC(=O)O[C@H](C)OC(=O)[C@@H](C)c1ccc(CC(C)C)cc1 [N6(S)-1]

degradation rate of the peaks in human plasma [1]: different degradation rates
Structure (SMILES): CCOC(=O)O[C@@H](C)OC(=O)[C@@H](C)c1ccc(CC(C)C)cc1 [N6(S)-2]

degradation rate of the peaks in human plasma [1]: different degradation rates
Structure (SMILES): CCOC(=O)O[C@@H](CC)OC(=O)[C@@H](C)c1ccc(CC(C)C)cc1 [N9(S)-2]

Amount of Active Metabolites Produced (%) ([1]; human plasma, 37° C., 120 min): 44.3 ± 2.3% | Remaining Amount of the Prodrug Compound (%) ([1]; human plasma, 37° C., 120 min): 37.4 ± 1.9%
Structure (SMILES): CC(=O)OC(C)OC(=O)[C@@H](C)c1ccc(-c2ccccc2)c(F)c1 (stereo partly drawn) [S-FPA, reference compound]
